Assay results as given in paper PMC8958504 (Journal of Medicinal Chemistry, 2022).
Where two headings read alike, the source gives them in different places.

Key:
[1] = tested on: NRF2-ARE signaling pathway; assay: cells; type: cell-based; conditions: for EC (2-fold induction): Arec32, 24 h, read-out: NRF2 (CD, μM), concentration required to double luciferase activity, AREc32 cells, 24 h; for NRF2 (CD, μM): concentration required to double luciferase activity, AREc32 cells, 24 h
Procedure: AREc32 cells were plated in 96-well white plates (2 × 10^4 cells/well). […]. The AREc32 cells constitutively express the plasmid pGL-8xARE that implements eight copies of the EpRE sequences, followed by the luciferase reporter gene. Therefore, NRF2 induction is related to the activation of EpRE sequences, expressing luciferase at the same extent as EpRE sequences are activated. The Luciferase Assay System (Promega E1500) was used according to the provider’s protocol, and luminescence was quantified in an Orion II microplate luminometer (Berthold, Germany). Fold induction of luciferase activity was normalized to basal conditions. Data are expressed as CD values, expressing the concentration required to double the luciferase activity. CD values were calculated from dose–response curves generated from the fold induction of control conditions versus inducer concentration and fitted by nonlinear regression and data interpolated to twofold induction concentration.[68]

[2] = target: T1, hMAO-A (Homo sapiens, UniProt P21397); assay: biochemical; conditions: for IC50: read-out: hMAO-A (IC50), recombinant hMAO-A, p-tyramine substrate
T1 sequence (P21397 1-527): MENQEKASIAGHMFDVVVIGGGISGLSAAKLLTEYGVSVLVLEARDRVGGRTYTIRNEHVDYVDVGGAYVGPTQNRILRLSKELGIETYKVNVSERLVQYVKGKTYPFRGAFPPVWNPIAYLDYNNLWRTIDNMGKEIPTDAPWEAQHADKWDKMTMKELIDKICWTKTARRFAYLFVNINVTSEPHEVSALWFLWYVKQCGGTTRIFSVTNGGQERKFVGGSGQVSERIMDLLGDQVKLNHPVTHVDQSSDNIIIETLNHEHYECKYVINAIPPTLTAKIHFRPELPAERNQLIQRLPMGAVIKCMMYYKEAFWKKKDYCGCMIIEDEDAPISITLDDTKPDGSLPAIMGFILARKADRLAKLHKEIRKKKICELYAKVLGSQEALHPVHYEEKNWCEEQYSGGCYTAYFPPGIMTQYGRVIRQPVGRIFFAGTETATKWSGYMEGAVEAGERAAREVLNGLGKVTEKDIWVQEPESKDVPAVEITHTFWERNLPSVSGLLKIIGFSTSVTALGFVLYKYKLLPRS
Procedure: (§1) The hMAO-A/B inhibition of all compounds was determined using the Amplex Red MAO assay kit.
(§2) Assays were performed following the general procedure previously described.[98] […] The specific fluorescence emission was calculated after subtracting the background activity, which was determined from wells containing all components except the hMAO isoforms, which were replaced with PBS.

[3] = target: T2, hMAO-B (Homo sapiens, UniProt P27338); assay: biochemical; conditions: for IC50: read-out: hMAO-B (IC50), recombinant hMAO-B, p-tyramine substrate; for inhibition at 50 µM: read-out: hMAO-B percentage of inhibition (in brackets)
T2 sequence (P27338 1-520): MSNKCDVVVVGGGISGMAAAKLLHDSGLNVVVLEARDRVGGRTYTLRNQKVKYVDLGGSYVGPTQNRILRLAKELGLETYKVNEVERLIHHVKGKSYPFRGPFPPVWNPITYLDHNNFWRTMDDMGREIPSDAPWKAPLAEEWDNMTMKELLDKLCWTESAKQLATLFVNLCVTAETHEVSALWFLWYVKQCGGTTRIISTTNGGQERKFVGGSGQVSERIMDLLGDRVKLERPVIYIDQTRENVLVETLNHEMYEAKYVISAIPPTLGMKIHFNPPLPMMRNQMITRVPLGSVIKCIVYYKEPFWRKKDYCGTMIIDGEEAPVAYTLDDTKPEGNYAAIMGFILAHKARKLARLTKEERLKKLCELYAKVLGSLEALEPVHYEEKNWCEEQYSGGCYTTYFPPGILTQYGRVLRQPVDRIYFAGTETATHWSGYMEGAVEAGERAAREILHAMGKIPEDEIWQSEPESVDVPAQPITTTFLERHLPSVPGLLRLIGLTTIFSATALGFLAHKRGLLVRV
Procedure: as §1, §2

[4] = Oxygen radical absorbance capacity (ORAC-FL) assay; conditions: trolox = 1.0
Procedure: 2,2′-Azobis-(amidinopropane) dihydrochloride (AAPH), trolox, and fluorescein (FL) were purchased from Sigma-Aldrich. The reaction was carried out in a 75 mM phosphate buffer (pH 7.4), and the final reaction mixture was 200 μL. […] Antioxidant curves (fluorescence vs time) were first normalized to the curve of the blank corresponding to the same assay, and the area under the curve (AUC) of fluorescence decay was calculated. The net AUC corresponding to a sample was calculated by subtracting the AUC corresponding to the blank. Regression equations between the net AUC and antioxidant concentration were calculated for all the samples.

[5] = in vitro; type: in vitro ADME; conditions: for Papp at 240 min, 100 μg mL^–1: PAMPA; for PAMPA-BBB (Pe, 10^–6 cm s^–1): porcine brain lipid
[6] = target: T3, QR2 (Mesocricetus auratus, UniProt A0ABM2YAB8); assay: biochemical
T3 sequence (A0ABM2YAB8 1-231): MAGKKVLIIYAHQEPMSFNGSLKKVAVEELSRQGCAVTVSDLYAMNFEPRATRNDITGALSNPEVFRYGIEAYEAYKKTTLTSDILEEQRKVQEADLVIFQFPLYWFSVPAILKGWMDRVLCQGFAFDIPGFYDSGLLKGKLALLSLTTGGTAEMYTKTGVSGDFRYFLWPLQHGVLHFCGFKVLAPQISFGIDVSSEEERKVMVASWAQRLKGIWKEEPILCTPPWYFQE
Procedure: The QR2 experiments were performed in membrane homogenates of hamster brains (https://www.eurofins.fr, catalog ref. 0088). […] First, radioligand displacement was measured at a fixed compound concentration (10 μM) in each receptor.

[7] = pH 7.4, class from PAMPA-BBB Pe, read-out: CNS-permeability prediction
[8] = PBS/EtOH (70:30), 240 min, 25 °C

Compound	EC (2-fold induction) [1]	NRF2 (CD, μM) [1]	IC50 [2]	IC50 [3]	inhibition at 50 µM [3]	ORAC (trolox equiv) [4]	Papp at 240 min, 100 μg mL^–1 [5, 7]	PAMPA-BBB (Pe, 10^–6 cm s^–1) [5, 8]	IC50 [6]	inhibition at 10 µM ([6]; read-out: QR2 percentage of inhibition (in brackets))	inhibition at 50 µM ([2]; read-out: hMAO-A percentage of inhibition (in brackets))	Papp at 240 min, 100 μg mL^–1 ([5]; pH 7.4, porcine brain lipid, PBS/EtOH (70:30), 240 min, 25 °C, read-out: PAMPA-BBB)	Papp at 240 min, 100 μg mL^–1 ([5]; pH 7.4, PAMPA standards, mean ± SD of three experiments, read-out: Permeability Pe, Exp)
N#Cc1cccc(/C=C/c2n[nH]c(=O)o2)c1 [2b, 3-[(E)-2-(5-Oxo-4,5-dihydro-1,3,4-oxadiazol-2-yl)ethenyl]benzonitrile]	13.7 µM	13.7 ± 2.2 µM	> 50 µM	> 50 µM	38%	<0.1 trolox equiv	> 4 ×10⁻⁶ cm/s	4.5 ± 0.3 10^–6 cm s^–1	–	–	–	–	–
COc1ccc(/C=C/c2n[nH]c(=O)o2)cc1 [2e, 5-[(E)-2-(4-Methoxyphenyl)ethenyl]-1,3,4-oxadiazol-2(3H)-one]	> 60 µM	–	> 50 µM	> 50 µM	42%	<0.1 trolox equiv	> 4 ×10⁻⁶ cm/s	6.5 ± 0.5 10^–6 cm s^–1	~10 µM	68%	–	–	–
COc1ccc(/C=C/c2n[nH]c(=O)o2)c(OC)c1 [2f, 5-[(E)-2-(2,4-Dimethoxyphenyl)ethenyl]-1,3,4-oxadiazol-2(3H)-one]	–	–	> 50 µM	> 50 µM	–	0.6 ± 0.08 trolox equiv	2 to 4 ×10⁻⁶ cm/s	3.6 ± 0.2 10^–6 cm s^–1	–	–	–	–	–
COc1ccc(OC)c(/C=C/c2n[nH]c(=O)o2)c1 [2g, 5-[(E)-2-(2,5-Dimethoxyphenyl)ethenyl]-1,3,4-oxadiazol-2(3H)-one]	–	–	> 50 µM	> 50 µM	–	<0.1 trolox equiv	2 to 4 ×10⁻⁶ cm/s	3.0 ± 0.2 10^–6 cm s^–1	–	–	–	–	–
COc1ccc(/C=C/c2n[nH]c(=O)o2)cc1OC [2h, 5-[(E)-2-(3,4-Dimethoxyphenyl)ethenyl]-1,3,4-oxadiazol-2(3H)-one]	> 60 µM	–	> 50 µM	> 50 µM	–	<0.1 trolox equiv	2 to 4 ×10⁻⁶ cm/s	2.4 ± 0.3 10^–6 cm s^–1	–	–	–	–	–
O=c1[nH]nc(/C=C/c2ccc3c(c2)OCO3)o1 [2i, 5-[(E)-2-(2H-1,3-Benzodioxol-5-yl)ethenyl]-1,3,4-oxadiazol-2(3H)-one]	–	–	> 50 µM	27.6 ± 0.9 µM	–	<0.1 trolox equiv	2 to 4 ×10⁻⁶ cm/s	3.8 ± 0.2 10^–6 cm s^–1	–	–	–	–	–
COc1cc(/C=C/c2n[nH]c(=O)o2)cc(OC)c1 [2j, 5-[(E)-2-(3,5-Dimethoxyphenyl)ethenyl]-1,3,4-oxadiazol-2(3H)-one]	–	–	> 50 µM	> 50 µM	–	<0.1 trolox equiv	2 to 4 ×10⁻⁶ cm/s	2.1 ± 0.2 10^–6 cm s^–1	0.51 ± 0.05 µM	–	–	–	–
COc1cc(/C=C/c2n[nH]c(=O)o2)cc(OC)c1OC [2k, 5-[(E)-2-(3,4,5-Trimethoxyphenyl)ethenyl]-1,3,4-oxadiazol-2(3H)-one]	–	–	> 50 µM	> 50 µM	–	<0.1 trolox equiv	< 2 ×10⁻⁶ cm/s	≤ 0.5 10^–6 cm s^–1	–	–	–	–	–
O=c1[nH]nc(/C=C/c2ccc(O)c(O)c2)o1 [3o, 5-[(E)-2-(3,4-Dihydroxyphenyl)ethenyl]-1,3,4-oxadiazol-2(3H)-one]	–	21.3 ± 1.6 µM	3.4 ± 0.2 µM	5.8 ± 0.4 µM	–	1.7 ± 0.1 trolox equiv	< 2 ×10⁻⁶ cm/s	≤ 0.2 10^–6 cm s^–1	–	–	–	–	–
O=c1[nH]nc(/C=C/c2cc(O)cc(O)c2)o1 [3p, 5-[(E)-2-(3,5-Dihydroxyphenyl)ethenyl]-1,3,4-oxadiazol-2(3H)-one]	> 60 µM	–	> 50 µM	> 50 µM	–	1.9 ± 0.1 trolox equiv	< 2 ×10⁻⁶ cm/s	≤ 0.1 10^–6 cm s^–1	–	–	–	–	–
C#CCNC(=O)/C=C/c1cccc(C#N)c1 [6b, (2E)-3-(3-Cyanophenyl)-N-(prop-2-yn-1-yl)prop-2-enamide]	> 60 µM	–	> 50 µM	> 50 µM	–	<0.1 trolox equiv	–	–	–	–	–	–	–
C#CCNC(=O)/C=C/c1ccc(OC)cc1 [6e, (2E)-3-(4-Methoxyphenyl)-N-(prop-2-yn-1-yl)prop-2-enamide]	–	–	> 50 µM	> 50 µM	–	<0.1 trolox equiv	–	–	–	–	–	–	–
C#CCNC(=O)/C=C/c1cccc(O)c1 [6l, (2E)-3-(3-Hydroxyphenyl)-N-(prop-2-yn-1-yl)prop-2-enamide]	–	–	> 50 µM	> 50 µM	–	3.0 ± 0.3 trolox equiv	–	–	–	–	–	–	–
C#CCNC(=O)/C=C/c1ccc(O)cc1 [6m, (2E)-3-(4-Hydroxyphenyl)-N-(prop-2-yn-1-yl)prop-2-enamide]	–	–	> 50 µM	31.1 ± 1.57 µM	–	3.0 ± 0.2 trolox equiv	–	–	–	–	–	–	–
C#CCNC(=O)/C=C/c1ccc(O)c(OC)c1 [6n, (2E)-3-(4-Hydroxy-3-methoxyphenyl)-N-(prop-2-yn-1-yl)prop-2-enamide]	> 60 µM	>60 µM	> 50 µM	> 50 µM	33%	0.5 ± 0.03 trolox equiv	< 2 ×10⁻⁶ cm/s	≤ 0.5 10^–6 cm s^–1	–	–	33%	< 2 ×10⁻⁶ cm/s	–
C[C@]12CCC(=O)C=C1CC[C@@H]1[C@@H]2[C@@H](O)C[C@]2(C=O)[C@@H](C(=O)CO)CC[C@@H]12 [Aldosterone, reference compound]	–	–	–	–	–	–	–	–	–	–	–	–	3.1 ± 0.2 ×10⁻⁶ cm/s
COc1ccc2[nH]cc(CCNC(C)=O)c2c1 [melatonin, reference compound]	–	–	–	–	–	–	–	–	0.077 ± 0.001 µM	–	–	–	–
C[S+]([O-])CCCCN=C=S (stereo not shown) [sulforaphane, reference compound]	1.24 µM	1.24 ± 0.28 µM	–	–	–	–	–	–	–	–	–	–	–
